Test results as given in PubChem BioAssay AID1259407 (Chemical Carcinogenesis Research Information System (CCRIS), 2018).
Activity calls are given as the source filed them. No rule for the calls is given here.

Tested on: CCRIS mutagenicity, Ames/micronucleus/aberration tests
Assay: CCRIS mutagenicity studies
[1] = Test System: AMES SALMONELLA TYPHIMURIUM, Strain/Indicator: TA98, Metabolic Activation: NONE, Method: PREINCUBATION
[2] = Test System: AMES SALMONELLA TYPHIMURIUM, Strain/Indicator: TA98, Metabolic Activation: RAT, LIVER, S-9, PCB, Method: PREINCUBATION
[3] = Test System: AMES SALMONELLA TYPHIMURIUM, Strain/Indicator: TA100, Metabolic Activation: NONE, Method: PREINCUBATION
[4] = Test System: AMES SALMONELLA TYPHIMURIUM, Strain/Indicator: TA100, Metabolic Activation: RAT, LIVER, S-9, PCB, Method: PREINCUBATION
[5] = Test System: AMES SALMONELLA TYPHIMURIUM, Strain/Indicator: TA98, Metabolic Activation: RAT, LIVER, S-9, AROCLOR 1254, Method: STANDARD PLATE
[6] = Test System: AMES SALMONELLA TYPHIMURIUM, Strain/Indicator: TA100, Metabolic Activation: RAT, LIVER, S-9, AROCLOR 1254, Method: STANDARD PLATE
[7] = Test System: AMES SALMONELLA TYPHIMURIUM, Strain/Indicator: TA1535, Metabolic Activation: NONE, Method: STANDARD PLATE
[8] = Test System: AMES SALMONELLA TYPHIMURIUM, Strain/Indicator: TA1535, Metabolic Activation: RAT, LIVER, S-9, AROCLOR 1254, Method: STANDARD PLATE
[9] = Test System: AMES SALMONELLA TYPHIMURIUM, Strain/Indicator: TA1537, Metabolic Activation: NONE, Method: STANDARD PLATE
[10] = Test System: AMES SALMONELLA TYPHIMURIUM, Strain/Indicator: TA1537, Metabolic Activation: RAT, LIVER, S-9, AROCLOR 1254, Method: STANDARD PLATE
[11] = Test System: AMES SALMONELLA TYPHIMURIUM, Strain/Indicator: TA98, Metabolic Activation: NONE, Method: STANDARD PLATE
[12] = Test System: AMES SALMONELLA TYPHIMURIUM, Strain/Indicator: TA100, Metabolic Activation: NONE, Method: STANDARD PLATE

COc1nncc2ccccc12
mutagenic call [1]: inactive; negative | mutagenic call [2]: inactive; negative | mutagenic call [3]: inactive; negative | mutagenic call [4]: inactive; negative

CCCCCCCCCCCCCCCC(=O)OCC1(O)CC23CC[C@@H]4c5ccoc5C=CC4(C)C2CCC1C3 (stereo not given in full)
mutagenic call (Test System: AMES SALMONELLA TYPHIMURIUM, Strain/Indicator: TM677, Metabolic Activation: NONE, Method: PREINCUBATION): inactive; negative | mutagenic call (Test System: AMES SALMONELLA TYPHIMURIUM, Strain/Indicator: TM677, Metabolic Activation: RAT, LIVER, S-9, AROCLOR 1254, Method: PREINCUBATION): inactive; negative

O=C1c2ccccc2C(=O)c2c(O)c(O)cc(O)c21
mutagenic call [1]: inactive; negative | mutagenic call [5]: inactive; negative | mutagenic call [2]: inactive; negative | mutagenic call [3]: inactive; negative | mutagenic call [6]: inactive; negative | mutagenic call [4]: inactive; negative | mutagenic call [7]: inactive; negative | mutagenic call [8]: inactive; negative | mutagenic call (Test System: AMES SALMONELLA TYPHIMURIUM, Strain/Indicator: TA1537, Metabolic Activation: NONE, Method: PREINCUBATION): active; positive | mutagenic call [9]: active; positive | mutagenic call [10]: active; positive | mutagenic call (Test System: AMES SALMONELLA TYPHIMURIUM, Strain/Indicator: TA1537, Metabolic Activation: RAT, LIVER, S-9, Method: PREINCUBATION): active; positive | mutagenic call (Test System: CHINESE HAMSTER V-79, Strain/Indicator: V-79/8-AZAGUANINE, Metabolic Activation: NONE, Method: STANDARD PLATE): active; positive | mutagenic call (Test System: UDS RODENT HEPATOCYTES, Strain/Indicator: THY INCORP (NON-S-PHASE), Method: AUTORADIOGRAPHY): active; positive

c1cc(-c2cc3ccc(C4=NCCN4)cc3[nH]2)ccc1C1=NCCN1
mutagenic call [11]: inactive; negative | mutagenic call (Test System: AMES SALMONELLA TYPHIMURIUM, Strain/Indicator: TA98, Metabolic Activation: RAT, LIVER, S-9, PHENOBARBITAL, Method: STANDARD PLATE): inactive; negative | mutagenic call [12]: inactive; negative | mutagenic call (Test System: AMES SALMONELLA TYPHIMURIUM, Strain/Indicator: TA100, Metabolic Activation: RAT, LIVER, S-9, PHENOBARBITAL, Method: STANDARD PLATE): inactive; negative

O=C(O)CCSCCC(=O)O
mutagenic call (Test System: Ames Salmonella typhimurium, Strain/Indicator: TA98, Metabolic Activation: None, Method: Preincubation): inactive; negative | mutagenic call (Test System: Ames Salmonella typhimurium, Strain/Indicator: TA98, Metabolic Activation: Rat, Liver, S-9, Phenobarbital and 5,6-benzoflavone, Method: Preincubation): inactive; negative | mutagenic call (Test System: Ames Salmonella typhimurium, Strain/Indicator: TA100, Metabolic Activation: None, Method: Preincubation): inactive; negative | mutagenic call (Test System: Ames Salmonella typhimurium, Strain/Indicator: TA100, Metabolic Activation: Rat, Liver, S-9, Phenobarbital and 5,6-benzoflavone, Method: Preincubation): inactive; negative | mutagenic call (Test System: Ames Salmonella typhimurium, Strain/Indicator: TA1535, Metabolic Activation: None, Method: Preincubation): inactive; negative | mutagenic call (Test System: Ames Salmonella typhimurium, Strain/Indicator: TA1535, Metabolic Activation: Rat, Liver, S-9, Phenobarbital and 5,6-benzoflavone, Method: Preincubation): inactive; negative | mutagenic call (Test System: Ames Salmonella typhimurium, Strain/Indicator: TA1537, Metabolic Activation: None, Method: Preincubation): inactive; negative | mutagenic call (Test System: Ames Salmonella typhimurium, Strain/Indicator: TA1537, Metabolic Activation: Rat, Liver, S-9, Phenobarbital and 5,6-benzoflavone, Method: Preincubation): inactive; negative | mutagenic call (Test System: E. coli, Strain/Indicator: WP2uvrA/pKM101, Metabolic Activation: None, Method: Preincubation): inactive; negative | mutagenic call (Test System: E. coli, Strain/Indicator: WP2uvrA/pKM101, Metabolic Activation: Rat, Liver, S-9, Phenobarbital and 5,6-benzoflavone, Method: Preincubation): inactive; negative

O=P(OCC(Br)CBr)(OCC(Br)CBr)OCC(Br)CBr (stereo not given)
mutagenic call [3]: inactive; negative | mutagenic call [12]: inactive; negative | mutagenic call (Test System: AMES SALMONELLA TYPHIMURIUM, Strain/Indicator: TA100, Metabolic Activation: RAT LIVER S-9, PHENOBARBITAL, Method: PREINCUBATION): active; positive | mutagenic call (Test System: AMES SALMONELLA TYPHIMURIUM, Strain/Indicator: TA100, Metabolic Activation: RAT, LIVER, HEPATOCYTES, PHENOBARBITAL, Method: PREINCUBATION): active; positive | mutagenic call (Test System: AMES SALMONELLA TYPHIMURIUM, Strain/Indicator: TA100, Metabolic Activation: RAT, LIVER, HEPATOCYTES, Method: PREINCUBATION): active; positive | mutagenic call (Test System: AMES SALMONELLA TYPHIMURIUM, Strain/Indicator: TA100, Metabolic Activation: RAT, LIVER, MICROSOMES, AROCLOR 1254, Method: STANDARD PLATE): active; positive | mutagenic call (Test System: AMES SALMONELLA TYPHIMURIUM, Strain/Indicator: TA100, Metabolic Activation: RAT, LIVER, MICROSOMES, PHENOBARBITAL, Method: PREINCUBATION): active; positive | mutagenic call (Test System: AMES SALMONELLA TYPHIMURIUM, Strain/Indicator: TA100, Metabolic Activation: RAT, LIVER, MICROSOMES, Method: PREINCUBATION): active; positive | mutagenic call [6]: active; positive | mutagenic call (Test System: AMES SALMONELLA TYPHIMURIUM, Strain/Indicator: TA104, Metabolic Activation: RAT LIVER S-9, PHENOBARBITAL, Method: PREINCUBATION): active; positive | mutagenic call [8]: active; positive | mutagenic call (Test System: CHINESE HAMSTER V-79, Strain/Indicator: V-79/6-THIOGUANINE, Metabolic Activation: RAT, LIVER, MICROSOMES, PHENOBARBITAL): active; positive | mutagenic call (Test System: E. COLI, Strain/Indicator: WP2 UVRA, Metabolic Activation: MOUSE, LIVER, S-9, Method: STANDARD PLATE): inactive; negative | mutagenic call (Test System: E. COLI, Strain/Indicator: WP2 UVRA, Metabolic Activation: NONE, Method: STANDARD PLATE): inactive; negative | mutagenic call (Test System: E. COLI, Strain/Indicator: WP2 UVRA, Metabolic Activation: RAT, LIVER, S-9, Method: STANDARD PLATE): inactive; negative | mutagenic call (Test System: UDS RAT HEPATOCYTES, Strain/Indicator: THY INCORP, Metabolic Activation: NONE): active; positive | mutagenic call (Test System: UDS RODENT HEPATOCYTES, Strain/Indicator: THY INCORP (NON-S-PHASE), Metabolic Activation: RAT, LIVER, HEPATOCYTES, PHENOBARBITAL, Method: LIQUID SCINTILLATION COUNTING): active; positive | mutagenic call (Test System: UDS RODENT HEPATOCYTES, Strain/Indicator: THY INCORP (NON-S-PHASE), Metabolic Activation: RAT, LIVER, HEPATOCYTES, Method: LIQUID SCINTILLATION COUNTING): active; positive

Cc1cc(C)c2nc3c(ccc4ccccc43)c(C)c2c1
mutagenic call (Test System: AMES SALMONELLA TYPHIMURIUM, Strain/Indicator: TA97A, Metabolic Activation: NONE, Method: PREINCUBATION): inactive; negative | mutagenic call [1]: active; positive | mutagenic call [3]: active; positive | mutagenic call (Test System: AMES SALMONELLA TYPHIMURIUM, Strain/Indicator: TA102, Metabolic Activation: NONE, Method: PREINCUBATION): inactive; negative

CC1(C)C[C@@H]2[C@@]3(C(=O)O)C[C@@]3(C=O)C(C=O)=C[C@]2(O)C1
mutagenic call (Test System: CHINESE HAMSTER V-79, Strain/Indicator: V-79/6-THIOGUANINE (HGPRT), Metabolic Activation: NONE): inactive; negative

Cc1cc(N)c([N+](=O)[O-])c(C)c1N
mutagenic call [11]: inactive; negative | mutagenic call [5]: inactive; negative | mutagenic call [12]: inactive; negative | mutagenic call [6]: inactive; negative | mutagenic call [7]: inactive; negative | mutagenic call [8]: inactive; negative | mutagenic call [9]: inactive; negative | mutagenic call [10]: inactive; negative | mutagenic call (Test System: AMES SALMONELLA TYPHIMURIUM, Strain/Indicator: TA1538, Metabolic Activation: NONE, Method: STANDARD PLATE): inactive; negative | mutagenic call (Test System: AMES SALMONELLA TYPHIMURIUM, Strain/Indicator: TA1538, Metabolic Activation: RAT, LIVER, S-9, AROCLOR 1254, Method: STANDARD PLATE): inactive; negative

OCc1ccc(Br)cc1
mutagenic call [12]: inactive; negative

O=[N+]([O-])c1c2ccccc2cc2c1ccc1ccccc12
mutagenic call [11]: inactive; negative | mutagenic call [12]: inactive; negative
